According to patent US20230085307A1, “PYRIDAZINONE COMPOUND AND HERBICIDE” (NISSAN CHEMICAL CORPORATION, priority 2019, published 2023):

Columns and labels:
blackgrass [1] = test: Test Example 5: herbicidal effect by foliage application, plastic box (Table 20, symbol J); assay type: in vivo, blackgrass (Alopecurus myosuroides); conditions: foliage application, three weeks after application
Procedure, shortened: (§1)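 Plants sown in sterilized diluvial soil and grown 14 days in a greenhouse at 25° C to 30° C, then sprayed on the foliage with the compound's emulsion diluted in water to a predetermined herbicide amount. Injury to weeds and crops scored three weeks after application on a visual rating scale.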

wild oat [2] = test: Test Example 5: herbicidal effect by foliage application, plastic box (Table 20, symbol I); assay type: in vivo, wild oat (Avena fatua); conditions: foliage application, three weeks after application
Procedure, shortened: as §1

windgrass [3] = test: Test Example 4: herbicidal effect by soil treatment (Table 19, symbol L); assay type: in vivo, windgrass (Apera spica-venti)
Procedure, shortened: (§2)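 Three weeks of greenhouse growth at 25° C. to 30° C. followed a uniform surface spray of water-diluted emulsion at a predetermined herbicide amount. Seeds had been sown beforehand under about 1.5 cm of sterilized diluvial soil. Grading followed criteria set out in an earlier test.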

Italian ryegrass [4] = test: Test Example 5: herbicidal effect by foliage application, plastic box (Table 20, symbol K); assay type: in vivo, Italian ryegrass (Lolium multiflorum); conditions: foliage application, three weeks after application
Procedure, shortened: as §1

persian speedwell [5] = test: Test Example 4: herbicidal effect by soil treatment (Table 19, symbol R); assay type: in vivo, Persian speedwell (Veronica persica)
Procedure, shortened: as §2

windgrass [6] = test: Test Example 5: herbicidal effect by foliage application, plastic box (Table 20, symbol L); assay type: in vivo, windgrass (Apera spica-venti); conditions: foliage application, three weeks after application
Procedure, shortened: as §1

Italian ryegrass [7] = test: Test Example 4: herbicidal effect by soil treatment (Table 19, symbol K); assay type: in vivo, Italian ryegrass (Lolium multiflorum)
Procedure, shortened: as §2

barnyard grass [8] = test: Test Example 4: herbicidal effect by soil treatment (Table 19, symbol H); assay type: in vivo, barnyard grass (Echinochloa crus-galli)
Procedure, shortened: as §2

lambsquarters [9] = test: Test Example 5: herbicidal effect by foliage application, plastic box (Table 20, symbol O); assay type: in vivo, lambsquarters (Chenopodium album); conditions: foliage application, three weeks after application
Procedure, shortened: as §1

Chinese sprangletop = test: Test Example 3: herbicidal effect by foliage application, Wagner pot (Table 18, symbol D); assay type: in vivo, chinese sprangletop (Leptochloa chinensis)
Procedure, shortened: (§3)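 Plants were sown in alluvial soil held under 0.1–0.5 cm standing water and grown 14 days in a greenhouse at 25–30 °C. An emulsifiable formulation, water-diluted to the set dose, was then sprayed onto the foliage, and effects were scored three weeks later using previously defined criteria.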

southern crabgrass [10] = test: Test Example 4: herbicidal effect by soil treatment (Table 19, symbol F); assay type: in vivo, southern crabgrass (Digitaria ciliaris)
Procedure, shortened: as §2

redroot pigweed [11] = test: Test Example 4: herbicidal effect by soil treatment (Table 19, symbol N); assay type: in vivo, redroot pigweed (Amaranthus retroflexus)
Procedure, shortened: as §2

blackgrass [12] = test: Test Example 4: herbicidal effect by soil treatment (Table 19, symbol J); assay type: in vivo, blackgrass (Alopecurus myosuroides)
Procedure, shortened: as §2

redroot pigweed [13] = test: Test Example 5: herbicidal effect by foliage application, plastic box (Table 20, symbol N); assay type: in vivo, redroot pigweed (Amaranthus retroflexus); conditions: foliage application, three weeks after application
Procedure, shortened: as §1

southern crabgrass [14] = test: Test Example 5: herbicidal effect by foliage application, plastic box (Table 20, symbol F); assay type: in vivo, southern crabgrass (Digitaria ciliaris); conditions: foliage application, three weeks after application
Procedure, shortened: as §1

green foxtail [15] = test: Test Example 5: herbicidal effect by foliage application, plastic box (Table 20, symbol G); assay type: in vivo, green foxtail (Setaria viridis); conditions: foliage application, three weeks after application
Procedure, shortened: as §1

chickweed [16] = test: Test Example 5: herbicidal effect by foliage application, plastic box (Table 20, symbol P); assay type: in vivo, common chickweed (Stellaria media); conditions: foliage application, three weeks after application
Procedure, shortened: as §1

green foxtail [17] = test: Test Example 4: herbicidal effect by soil treatment (Table 19, symbol G); assay type: in vivo, green foxtail (Setaria viridis)
Procedure, shortened: as §2

rice flat sedge = test: Test Example 3: herbicidal effect by foliage application, Wagner pot (Table 18, symbol E); assay type: in vivo, rice flat sedge (Cyperus iria)
Procedure, shortened: as §3

barnyard grass [18] = test: Test Example 3: herbicidal effect by foliage application, Wagner pot (Table 18, symbol H); assay type: in vivo, barnyard grass (Echinochloa crus-galli)
Procedure, shortened: as §3

persian speedwell [19] = test: Test Example 5: herbicidal effect by foliage application, plastic box (Table 20, symbol R); assay type: in vivo, Persian speedwell (Veronica persica); conditions: foliage application, three weeks after application
Procedure, shortened: as §1

velvetleaf [20] = test: Test Example 5: herbicidal effect by foliage application, plastic box (Table 20, symbol M); assay type: in vivo, velvetleaf (Abutilon theophrasti); conditions: foliage application, three weeks after application
Procedure, shortened: as §1

wild oat [21] = test: Test Example 4: herbicidal effect by soil treatment (Table 19, symbol I); assay type: in vivo, wild oat (Avena fatua)
Procedure, shortened: as §2

chickweed [22] = test: Test Example 4: herbicidal effect by soil treatment (Table 19, symbol P); assay type: in vivo, common chickweed (Stellaria media)
Procedure, shortened: as §2

velvetleaf [23] = test: Test Example 4: herbicidal effect by soil treatment (Table 19, symbol M); assay type: in vivo, velvetleaf (Abutilon theophrasti)
Procedure, shortened: as §2

barnyard grass [24] = test: Test Example 5: herbicidal effect by foliage application, plastic box (Table 20, symbol H); assay type: in vivo, barnyard grass (Echinochloa crus-galli); conditions: foliage application, three weeks after application
Procedure, shortened: as §1

lambsquarters [25] = test: Test Example 4: herbicidal effect by soil treatment (Table 19, symbol O); assay type: in vivo, lambsquarters (Chenopodium album)
Procedure, shortened: as §2

SMILES: Cc1nn(C)c(=O)c(-c2c(-c3ccccc3OCC(F)F)sc3ccccc23)c1O [1-116]
- J: blackgrass, herbicidal effect (blackgrass [1]; AAH 320 g/ha): 4 (Herbicidal rate of 70% or more and less than 90%)
- I: wild oat, herbicidal effect (wild oat [2]; AAH 320 g/ha): 4 (Herbicidal rate of 70% or more and less than 90%)
- L: windgrass, herbicidal effect rating (windgrass [3]; AAH 320 g/ha): 3 (Herbicidal rate of 40% or more and less than 70%)
- K: Italian ryegrass, herbicidal effect (Italian ryegrass [4]; AAH 320 g/ha): 2 (Herbicidal rate of 20% or more and less than 40%)
- R: persian speedwell, herbicidal effect rating (persian speedwell [5]; AAH 320 g/ha): 5 (Herbicidal rate of 90% or more (almost completely withered))
- L: windgrass, herbicidal effect (windgrass [6]; AAH 320 g/ha): 5 (Herbicidal rate of 90% or more (almost completely withered))
- K: Italian ryegrass, herbicidal effect rating (Italian ryegrass [7]; AAH 320 g/ha): 0 (Herbicidal rate of 5% or less (almost no effect))
- H: barnyard grass, herbicidal effect rating (barnyard grass [8]; AAH 320 g/ha): 0 (Herbicidal rate of 5% or less (almost no effect))
- O: lambsquarters, herbicidal effect (lambsquarters [9]; AAH 320 g/ha): 4 (Herbicidal rate of 70% or more and less than 90%)
- herbicidal effect on D (Chinese sprangletop), rating 0-5 (Chinese sprangletop; 320 g/ha): 2 (Herbicidal rate of 20% or more and less than 40%)
- F: southern crabgrass, herbicidal effect rating (southern crabgrass [10]; AAH 320 g/ha): 0 (Herbicidal rate of 5% or less (almost no effect))
- N: redroot pigweed, herbicidal effect rating (redroot pigweed [11]; AAH 320 g/ha): 5 (Herbicidal rate of 90% or more (almost completely withered))
- J: blackgrass, herbicidal effect rating (blackgrass [12]; AAH 320 g/ha): 1 (Herbicidal rate of 5% or more and less than 20%)
- N: redroot pigweed, herbicidal effect (redroot pigweed [13]; AAH 320 g/ha): 5 (Herbicidal rate of 90% or more (almost completely withered))
- F: southern crabgrass, herbicidal effect (southern crabgrass [14]; AAH 320 g/ha): 4 (Herbicidal rate of 70% or more and less than 90%)
- G: green foxtail, herbicidal effect (green foxtail [15]; AAH 320 g/ha): 5 (Herbicidal rate of 90% or more (almost completely withered))
- P: chickweed, herbicidal effect (chickweed [16]; AAH 320 g/ha): 5 (Herbicidal rate of 90% or more (almost completely withered))
- G: green foxtail, herbicidal effect rating (green foxtail [17]; AAH 320 g/ha): 0 (Herbicidal rate of 5% or less (almost no effect))
- herbicidal effect on E (rice flat sedge), rating 0-5 (rice flat sedge; 320 g/ha): 4 (Herbicidal rate of 70% or more and less than 90%)
- herbicidal effect on H (barnyard grass), rating 0-5 (barnyard grass [18]; 320 g/ha): 5 (Herbicidal rate of 90% or more (almost completely withered))
- R: persian speedwell, herbicidal effect (persian speedwell [19]; AAH 320 g/ha): 5 (Herbicidal rate of 90% or more (almost completely withered))
- M: velvetleaf, herbicidal effect (velvetleaf [20]; AAH 320 g/ha): 5 (Herbicidal rate of 90% or more (almost completely withered))
- I: wild oat, herbicidal effect rating (wild oat [21]; AAH 320 g/ha): 1 (Herbicidal rate of 5% or more and less than 20%)
- P: chickweed, herbicidal effect rating (chickweed [22]; AAH 320 g/ha): 5 (Herbicidal rate of 90% or more (almost completely withered))
- M: velvetleaf, herbicidal effect rating (velvetleaf [23]; AAH 320 g/ha): 2 (Herbicidal rate of 20% or more and less than 40%)
- H: barnyard grass, herbicidal effect (barnyard grass [24]; AAH 320 g/ha): 4 (Herbicidal rate of 70% or more and less than 90%)
- O: lambsquarters, herbicidal effect rating (lambsquarters [25]; AAH 320 g/ha): 3 (Herbicidal rate of 40% or more and less than 70%)

SMILES: Cc1nn(C)c(=O)c(-c2c(-c3cccc(C#N)c3)sc3ccccc23)c1O [1-123]
- J: blackgrass, herbicidal effect (blackgrass [1]; AAH 296 g/ha): 0 (Herbicidal rate of 5% or less (almost no effect))
- I: wild oat, herbicidal effect (wild oat [2]; AAH 296 g/ha): 0 (Herbicidal rate of 5% or less (almost no effect))
- L: windgrass, herbicidal effect rating (windgrass [3]; AAH 296 g/ha): 0 (Herbicidal rate of 5% or less (almost no effect))
- K: Italian ryegrass, herbicidal effect (Italian ryegrass [4]; AAH 296 g/ha): 0 (Herbicidal rate of 5% or less (almost no effect))
- R: persian speedwell, herbicidal effect rating (persian speedwell [5]; AAH 296 g/ha): 3 (Herbicidal rate of 40% or more and less than 70%)
- L: windgrass, herbicidal effect (windgrass [6]; AAH 296 g/ha): 0 (Herbicidal rate of 5% or less (almost no effect))
- K: Italian ryegrass, herbicidal effect rating (Italian ryegrass [7]; AAH 296 g/ha): 0 (Herbicidal rate of 5% or less (almost no effect))
- H: barnyard grass, herbicidal effect rating (barnyard grass [8]; AAH 296 g/ha): 0 (Herbicidal rate of 5% or less (almost no effect))
- O: lambsquarters, herbicidal effect (lambsquarters [9]; AAH 296 g/ha): 3 (Herbicidal rate of 40% or more and less than 70%)
- herbicidal effect on D (Chinese sprangletop), rating 0-5 (Chinese sprangletop; 296 g/ha): 3 (Herbicidal rate of 40% or more and less than 70%)
- F: southern crabgrass, herbicidal effect rating (southern crabgrass [10]; AAH 296 g/ha): 0 (Herbicidal rate of 5% or less (almost no effect))
- N: redroot pigweed, herbicidal effect rating (redroot pigweed [11]; AAH 296 g/ha): 4 (Herbicidal rate of 70% or more and less than 90%)
- J: blackgrass, herbicidal effect rating (blackgrass [12]; AAH 296 g/ha): 0 (Herbicidal rate of 5% or less (almost no effect))
- N: redroot pigweed, herbicidal effect (redroot pigweed [13]; AAH 296 g/ha): 5 (Herbicidal rate of 90% or more (almost completely withered))
- F: southern crabgrass, herbicidal effect (southern crabgrass [14]; AAH 296 g/ha): 0 (Herbicidal rate of 5% or less (almost no effect))
- G: green foxtail, herbicidal effect (green foxtail [15]; AAH 296 g/ha): 0 (Herbicidal rate of 5% or less (almost no effect))
- P: chickweed, herbicidal effect (chickweed [16]; AAH 296 g/ha): 5 (Herbicidal rate of 90% or more (almost completely withered))
- G: green foxtail, herbicidal effect rating (green foxtail [17]; AAH 296 g/ha): 0 (Herbicidal rate of 5% or less (almost no effect))
- herbicidal effect on E (rice flat sedge), rating 0-5 (rice flat sedge; 296 g/ha): 3 (Herbicidal rate of 40% or more and less than 70%)
- herbicidal effect on H (barnyard grass), rating 0-5 (barnyard grass [18]; 296 g/ha): 3 (Herbicidal rate of 40% or more and less than 70%)
- R: persian speedwell, herbicidal effect (persian speedwell [19]; AAH 296 g/ha): 1 (Herbicidal rate of 5% or more and less than 20%)
- M: velvetleaf, herbicidal effect (velvetleaf [20]; AAH 296 g/ha): 5 (Herbicidal rate of 90% or more (almost completely withered))
- I: wild oat, herbicidal effect rating (wild oat [21]; AAH 296 g/ha): 0 (Herbicidal rate of 5% or less (almost no effect))
- P: chickweed, herbicidal effect rating (chickweed [22]; AAH 296 g/ha): 1 (Herbicidal rate of 5% or more and less than 20%)
- M: velvetleaf, herbicidal effect rating (velvetleaf [23]; AAH 296 g/ha): 0 (Herbicidal rate of 5% or less (almost no effect))
- H: barnyard grass, herbicidal effect (barnyard grass [24]; AAH 296 g/ha): 0 (Herbicidal rate of 5% or less (almost no effect))
- O: lambsquarters, herbicidal effect rating (lambsquarters [25]; AAH 296 g/ha): 4 (Herbicidal rate of 70% or more and less than 90%)
